Experimental data as given in article PMC11988912, “Sensitization Potential of the Major Soybean Allergen Gly m 4 and Its Cross-Reactivity with the Birch Pollen Allergen Bet v 1” (International Journal of Molecular Sciences, 2025).

Target: T1, Gly m 4 (Glycine max, UniProt P26987)
T1 construct: gene PR-10; recombinant allergen, full length; made in E. coli
T1 sequence (P26987 1-158): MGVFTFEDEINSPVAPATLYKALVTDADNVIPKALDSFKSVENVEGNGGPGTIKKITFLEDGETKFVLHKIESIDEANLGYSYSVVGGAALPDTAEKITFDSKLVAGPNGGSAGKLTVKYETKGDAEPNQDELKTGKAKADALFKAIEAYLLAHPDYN
Test: TNS fluorescence displacement
Format: binding
Conditions: 4 uM ligand, 4 uM TNS, 4 uM Gly m 4; 10 mM phosphate buffer pH 7.4, 25 C; residual fluorescence of the Gly m 4-TNS complex

SMILES	% of the control fluorescence
C[C@H](CCC(=O)O)[C@H]1CC[C@H]2[C@@H]3[C@H](O)C[C@@H]4C[C@H](O)CC[C@]4(C)[C@H]3C[C@H](O)[C@]12C [CA, cholic acid]	88%
C[C@H](CCC(=O)O)[C@H]1CC[C@H]2[C@@H]3[C@H](O)C[C@@H]4C[C@H](O)CC[C@]4(C)[C@H]3CC[C@]12C [CDCA, chenodeoxycholic acid]	53%
CC(C)CCC[C@@H](C)[C@H]1CC[C@H]2[C@@H]3CC=C4C[C@@H](O)CC[C@]4(C)[C@H]3CC[C@]12C [CHOL, cholesterol]	83%
C[C@H](CCC(=O)O)[C@H]1CC[C@H]2[C@@H]3CC[C@@H]4C[C@H](O)CC[C@]4(C)[C@H]3C[C@H](O)[C@]12C [DCA, deoxycholic acid]	71%
C[C@H](CCC(=O)O)[C@H]1CC[C@H]2[C@@H]3CC[C@@H]4C[C@H](O)CC[C@]4(C)[C@H]3CC[C@]12C [LCA, lithocholic acid]	10%
